{"source": "paper PMC8763243", "about": "“Synthesis of Novel Suramin Analogs With Anti-Proliferative Activity via FGF1 and FGFRD2 Blockade” (Frontiers in Chemistry, 2022)", "key": {"[1]": {"assay": "Exposure stability study by 1H NMR in DMSO-d6 and D2O", "type": "physicochemical", "conditions": "0.017 mol/L in DMSO-d6 and D2O, 11 days", "protocol": "The stability of the compounds was verified in both aqueous and DMSO solutions. In aqueous medium, the stability of the suramin derivatives 15 and 18 were considered to verify the stability. A control experiment consisting of a DMSO-d 6 (0.017 mol/L) solution of 15 and a D2O solution of 15 (0.017 mol/L) was maintained on the laboratory bench. All experiments were performed in NMR tubes containing 0.017 mol/L solutions of compounds 15 and 18 in DMSO-d 6 and D2O, respectively. NMR spectra were recorded over 11 days (initially daily for 1 week).\n10 mg of the newly synthesized compound was diluted in 500 µL DMSO-d 6 under investigation in a 5-mm NMR tube. The procedure was maintained as it is for 11 days in the solution. The ^1H NMR spectrum was recorded daily for 4 days up to 11 days.\n10 mg of the novel compound was diluted in 500 µL D2O under investigation in a 5-mm NMR tube. The procedure was maintained as it is for 11 days in the solution. The ^1H NMR spectrum was recorded daily for 4 days up to 11 days."}, "[2]": {"assay": "WST-1 assay, cytotoxicity in tumorigenic cells", "type": "cell-based, human", "conditions": "human; MCF-7 cells, 48 h, SigmaPlot; read-out: estimated IC50 (cytotoxicity)", "protocol": "(§1) The water-soluble tetrazolium salt (WST-1) assay was performed to assess the effects of the compounds on cell proliferation and cytotoxicity. DMEM/F12 containing 10% FBS was used for the cell culture, and incubation was performed in 5% CO2 till the logarithmic growth phase was achieved. On the day before the experiment, the cells were trypsinized and seeded in a 96-well plate at a density of 5000 cells/well. For the FGF1-stimulated cell proliferation assay, the cells were then incubated for 24 h in a serum-free medium containing 0.1% bovine serum albumin (BSA). Serum-starved cells with or without a specified concentration of suramin, 14, 15, 17, 18, 21, and FGFRD2 were stimulated with 100 nM of FGF1 again for 48 h. For the purpose of the cytotoxicity assay, the cells were treated with an increased concentration of suramin and compounds 14, 17, 15, 18, and 21 (Figure 6) for 48 h. Also, 1/10 of the volume of WST-1 cell reagent was inserted in every well and maintained at 37°C for another 4 h before harvesting. There was gentle agitation of the medium in the cell culture plate for 10 min using a shaker. A Synergy 2 microplate reader (BioTek Instruments, Inc., VT, United States) was used to measure the absorbance at 450 nm. The relative absorbance was compared with the control treatment to determine the relative cell number.\n(§2) […] […] The reason for the higher cytotoxicity was the presence of methyl groups on the suramin structure ([Martello et al., 2001]).\n(§3) Suramin-induced neuropathy may depend on the effects on calcium (Ca^2+) homeostasis as a potential pathological mechanism, and the full or partial positive charge of the element when directly attached to the ring at each of the sulphonic groups (HSO3). These interactions exert a moderate to strong electron-withdrawing inductive effect, which may be responsible for the observed suramin cytotoxicity ([Prasetyaningrum et al., 2018]; [Von Der Ahe et al., 2018]). The cytotoxicity of the synthesized analogs was lower as there were methyl groups and no sulfonic acid groups attached to the suramin backbone. The IC50 values of the synthesized compounds in MCF-7 breast cancer cells were analyzed using SigmaPlot software."}, "MCF-7 cells [3]": {"tested_on": "MCF-7 cells", "assay": "WST-1 assay, cytotoxicity in tumorigenic cells", "type": "cell-based, human", "conditions": "for Mean (Blank 450) / Fold (mean) / Blank 450 / Fold: S8; for Fold (mean): relative to control; for Blank 450: single replicate absorbance; for Fold: single replicate relative to control; for cytotoxicity compared with suramin: MCF-7 cells, 1-100 µM, 48 h, especially at concentrations higher than 10 µM", "protocol": "as §1, §2, §3"}, "FGF1": {"molecular_target": "T1, FGF1 (Homo sapiens, UniProt P05230)", "T1 construct": "made in house", "T1 sequence (P05230 whole entry)": "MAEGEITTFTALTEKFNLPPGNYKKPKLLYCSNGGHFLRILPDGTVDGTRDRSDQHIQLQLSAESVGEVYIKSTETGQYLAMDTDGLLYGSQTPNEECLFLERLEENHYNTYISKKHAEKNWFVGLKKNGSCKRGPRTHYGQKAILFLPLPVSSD", "assay": "Fluorescence spectroscopy binding constant of FGF1 and suramin derivatives", "conditions": "fluorescence quenching, 5 µM FGF1, non-linear regression with Stern–Volmer equation, pH 6.5", "protocol": "The binding constant Kd was calculated for FGF1 and the five derivatives in a buffer containing 10% D2O, 50 mM AMS, 20 mM phosphate buffer, and 50 mM NaCl at pH 6.5 using an F-2500 Hitachi fluorescence spectrophotometer.\n[…] has tremendous significance for biochemical application because it provides valuable knowledge about the probability of quencher activity. The anti-mitogenic activity of the five compounds was achieved by the same mechanism in which suramin inhibits the mitogenic activity of FGF1. A non-linear regression curve was plotted for the relative intensities of activity versus drug concentration using the Stern–Volmer equation (Eq. 1). log(F0−F)/F=logK+nlog[Q], (1)\nwhere F0 represents the fluorescence intensity in the absence of the compounds, and F represents the fluorescence intensity in the presence of the [Q] concentration of the compounds.\nIncreasing concentrations of these five suramin derivatives were added to a solution containing 5 µM FGF1. A reduction in the fluorescence intensity was reported for all five suramin derivatives. The Stern–Volmer equation was used to calculate the binding constant between FGF1 and compounds 14, 15, 17, 18, and 21 for relative intensities versus the total concentration in a non-linear regression curve."}, "[4]": {"assay": "WST-1 assay, cytotoxicity in normal breast epithelial cell line (non-tumorigenic)", "type": "cell-based", "conditions": "human; non-tumorigenic MCF-10A cells; read-out: estimated IC50 (cytotoxicity)", "protocol": "as §1\nIn order to gain some insight about the selectivity of the compounds between tumorigenic and non-tumorigenic cells, the cytotoxicity was also being evaluated against normal breast cell lines by examining the cytotoxicity of suramin and its derivatives, compounds 15, 18, and 21, in a normal breast epithelial cell line (non-tumorigenic), MCF-10A. […] Compared to their cytotoxicity in tumorigenic MCF-7 cells (Figure 6), the estimated IC50 values in MCF-10A were higher than those in MCF-7 cells. […] However, the estimated IC50 value of suramin and its derivatives in both non-tumorigenic MCF-10A and tumorigenic MCF-7 cells were over 100 μM. The effective concentrations of suramin and its derivatives to attenuate FGF1-stimulated cell proliferation in MCF-7 cells were around 1 μM (Figure 5), which is non-toxic concentration to both MCF-7 cells and MCF-10A cells. […] Therefore, in addition to the specificity of each drug, the selectivity of suramin and its derivatives to disrupt the FGF1/FGFR-mediated breast cancer growth might rely on the overexpression or amplification of FGFR2 in breast cancer cells, but not in normal cells, and the secreted FGF1 ligand by autocrine or paracrine effects from cancer cells or their surrounding stroma cells or adipocytes (tumor microenvironment). The statistical data for the cytotoxicity are shown in Supplementary Figure S8."}, "MCF-7 cells [5]": {"tested_on": "MCF-7 cells", "assay": "WST-1 assay, FGF1-stimulated cell proliferation", "type": "cell-based, human", "conditions": "serum-starved MCF-7, 100 nM FGF1, 100 nM, 500 nM and 1 µM of test substance, 48 h", "protocol": "as §1\nCell proliferation was measured using the WST-1 assay. […]"}}, "note": "Several values for one entry are separate records, joined by “and”; a condition that tells them apart may be missing. Identical values can stand only once.", "data": [{"compound": "O=C(Nc1ccc(C(=O)Nc2cc(S(=O)(=O)[O-])cc3cc(S(=O)(=O)[O-])cc(S(=O)(=O)[O-])c23)cc1)Nc1ccc(C(=O)Nc2cc(S(=O)(=O)[O-])cc3cc(S(=O)(=O)[O-])cc(S(=O)(=O)[O-])c23)cc1.[Na+].[Na+].[Na+].[Na+].[Na+].[Na+]", "note": "[Compound 15, Sodium 8,8'-((4,4'-(carbonylbis (azanediyl))bis (benzoyl))bis (azanediyl))bis (naphthalene-1,3,6-trisulfonate)]", "values": [{"measurement": "stability in solution (1H NMR)", "setting": "[1]", "value": "remarkably stable"}, {"measurement": "IC50 at 48 h", "setting": "[2]", "value": "> 100", "unit": "µM"}, {"measurement": "Mean (Blank 450)", "setting": "MCF-7 cells [3]; 1 uM", "value": 1.163}, {"measurement": "Fold (mean)", "setting": "MCF-7 cells [3]; 1 uM", "value": 1.00}, {"measurement": "Blank 450", "setting": "MCF-7 cells [3]; 1 uM", "value": "1.143 and 1.162 and 1.195 and 1.152"}, {"measurement": "Fold", "setting": "MCF-7 cells [3]; 1 uM", "value": "0.981 and 0.997 and 1.026 and 0.989"}, {"measurement": "Mean (Blank 450)", "setting": "MCF-7 cells [3]; 5 uM", "value": 1.146}, {"measurement": "Fold (mean)", "setting": "MCF-7 cells [3]; 5 uM", "value": 0.98}, {"measurement": "Blank 450", "setting": "MCF-7 cells [3]; 5 uM", "value": "1.161 and 1.116 and 1.206 and 1.101"}, {"measurement": "Fold", "setting": "MCF-7 cells [3]; 5 uM", "value": "0.996 and 0.958 and 1.035 and 0.945"}, {"measurement": "Mean (Blank 450)", "setting": "MCF-7 cells [3]; 10 uM", "value": 1.122}, {"measurement": "Fold (mean)", "setting": "MCF-7 cells [3]; 10 uM", "value": 0.96}, {"measurement": "Blank 450", "setting": "MCF-7 cells [3]; 10 uM", "value": "1.151 and 1.117 and 1.059 and 1.162"}, {"measurement": "Fold", "setting": "MCF-7 cells [3]; 10 uM", "value": "0.988 and 0.959 and 0.909 and 0.997"}, {"measurement": "Mean (Blank 450)", "setting": "MCF-7 cells [3]; 50 uM", "value": 0.982}, {"measurement": "Fold (mean)", "setting": "MCF-7 cells [3]; 50 uM", "value": 0.84}, {"measurement": "Blank 450", "setting": "MCF-7 cells [3]; 50 uM", "value": "0.998 and 1.012 and 0.955 and 0.961"}, {"measurement": "Fold", "setting": "MCF-7 cells [3]; 50 uM", "value": "0.856 and 0.868 and 0.820 and 0.825"}, {"measurement": "Mean (Blank 450)", "setting": "MCF-7 cells [3]; 100 uM", "value": 0.880}, {"measurement": "Fold (mean)", "setting": "MCF-7 cells [3]; 100 uM", "value": 0.75}, {"measurement": "Blank 450", "setting": "MCF-7 cells [3]; 100 uM", "value": "0.927 and 0.887 and 0.833 and 0.872"}, {"measurement": "Fold", "setting": "MCF-7 cells [3]; 100 uM", "value": "0.796 and 0.761 and 0.715 and 0.748"}, {"measurement": "cytotoxicity compared with suramin", "setting": "MCF-7 cells [3]", "value": "less toxic"}, {"measurement": "Kd", "setting": "FGF1", "value": 20.9, "unit": "µM"}, {"measurement": "IC50 at 48 h", "setting": "[4]", "value": "221 ± 3.57", "unit": "µM"}]}, {"compound": "O=C(Nc1ccc(C(=O)Nc2cccc3cc(S(=O)(=O)O)ccc23)cc1)Nc1ccc(C(=O)Nc2cccc3cc(S(=O)(=O)O)ccc23)cc1", "note": "[Compound 14, Sodium 5,5'-((4,4'-(carbonylbis (azanediyl))bis (benzoyl))bis (azanediyl)) bis (naphthalene-2-sulfonate)]", "values": [{"measurement": "effect on FGF1-stimulated cell proliferation", "setting": "MCF-7 cells [5]", "value": "more potent inhibitory effects"}, {"measurement": "IC50 at 48 h", "setting": "[2]", "value": "> 100", "unit": "µM"}, {"measurement": "Mean (Blank 450)", "setting": "MCF-7 cells [3]; 0.5 uM", "value": 0.233}, {"measurement": "Fold (mean)", "setting": "MCF-7 cells [3]; 0.5 uM", "value": 1.04}, {"measurement": "Blank 450", "setting": "MCF-7 cells [3]; 0.5 uM", "value": "0.228 and 0.253 and 0.244 and 0.205"}, {"measurement": "Fold", "setting": "MCF-7 cells [3]; 0.5 uM", "value": "1.024 and 1.136 and 1.095 and 0.920"}, {"measurement": "Mean (Blank 450)", "setting": "MCF-7 cells [3]; 1 uM", "value": 0.231}, {"measurement": "Fold (mean)", "setting": "MCF-7 cells [3]; 1 uM", "value": 1.03}, {"measurement": "Blank 450", "setting": "MCF-7 cells [3]; 1 uM", "value": "0.248 and 0.227 and 0.205 and 0.242"}, {"measurement": "Fold", "setting": "MCF-7 cells [3]; 1 uM", "value": "1.113 and 1.019 and 0.920 and 1.086"}, {"measurement": "Mean (Blank 450)", "setting": "MCF-7 cells [3]; 5 uM", "value": 0.225}, {"measurement": "Fold (mean)", "setting": "MCF-7 cells [3]; 5 uM", "value": 1.01}, {"measurement": "Blank 450", "setting": "MCF-7 cells [3]; 5 uM", "value": "0.219 and 0.241 and 0.23 and 0.208"}, {"measurement": "Fold", "setting": "MCF-7 cells [3]; 5 uM", "value": "0.983 and 1.082 and 1.033 and 0.934"}, {"measurement": "Mean (Blank 450)", "setting": "MCF-7 cells [3]; 10 uM", "value": 0.211}, {"measurement": "Fold (mean)", "setting": "MCF-7 cells [3]; 10 uM", "value": 0.95}, {"measurement": "Blank 450", "setting": "MCF-7 cells [3]; 10 uM", "value": "0.206 and 0.193 and 0.225 and 0.218"}, {"measurement": "Fold", "setting": "MCF-7 cells [3]; 10 uM", "value": "0.925 and 0.866 and 1.010 and 0.979"}, {"measurement": "Mean (Blank 450)", "setting": "MCF-7 cells [3]; 100 uM", "value": 0.198}, {"measurement": "Fold (mean)", "setting": "MCF-7 cells [3]; 100 uM", "value": 0.89}, {"measurement": "Blank 450", "setting": "MCF-7 cells [3]; 100 uM", "value": "0.209 and 0.195 and 0.181 and 0.208"}, {"measurement": "Fold", "setting": "MCF-7 cells [3]; 100 uM", "value": "0.938 and 0.875 and 0.813 and 0.934"}, {"measurement": "cytotoxicity compared with suramin", "setting": "MCF-7 cells [3]", "value": "less toxic"}, {"measurement": "Kd", "setting": "FGF1", "value": 13.7, "unit": "µM"}]}]}
